{
  "source": "patent US10550103B2",
  "about": "“Dual inhibitors of PARP1 and CDK” (Accutar Biotechnology, priority 2017, dated 2020)",
  "key": {"PARP1": {"target": "T1, PARP1 (Homo sapiens, UniProt P09874)", "T1 construct": "purchased TREVIGEN 4690-096-K", "T1 sequence (P09874 whole entry)": "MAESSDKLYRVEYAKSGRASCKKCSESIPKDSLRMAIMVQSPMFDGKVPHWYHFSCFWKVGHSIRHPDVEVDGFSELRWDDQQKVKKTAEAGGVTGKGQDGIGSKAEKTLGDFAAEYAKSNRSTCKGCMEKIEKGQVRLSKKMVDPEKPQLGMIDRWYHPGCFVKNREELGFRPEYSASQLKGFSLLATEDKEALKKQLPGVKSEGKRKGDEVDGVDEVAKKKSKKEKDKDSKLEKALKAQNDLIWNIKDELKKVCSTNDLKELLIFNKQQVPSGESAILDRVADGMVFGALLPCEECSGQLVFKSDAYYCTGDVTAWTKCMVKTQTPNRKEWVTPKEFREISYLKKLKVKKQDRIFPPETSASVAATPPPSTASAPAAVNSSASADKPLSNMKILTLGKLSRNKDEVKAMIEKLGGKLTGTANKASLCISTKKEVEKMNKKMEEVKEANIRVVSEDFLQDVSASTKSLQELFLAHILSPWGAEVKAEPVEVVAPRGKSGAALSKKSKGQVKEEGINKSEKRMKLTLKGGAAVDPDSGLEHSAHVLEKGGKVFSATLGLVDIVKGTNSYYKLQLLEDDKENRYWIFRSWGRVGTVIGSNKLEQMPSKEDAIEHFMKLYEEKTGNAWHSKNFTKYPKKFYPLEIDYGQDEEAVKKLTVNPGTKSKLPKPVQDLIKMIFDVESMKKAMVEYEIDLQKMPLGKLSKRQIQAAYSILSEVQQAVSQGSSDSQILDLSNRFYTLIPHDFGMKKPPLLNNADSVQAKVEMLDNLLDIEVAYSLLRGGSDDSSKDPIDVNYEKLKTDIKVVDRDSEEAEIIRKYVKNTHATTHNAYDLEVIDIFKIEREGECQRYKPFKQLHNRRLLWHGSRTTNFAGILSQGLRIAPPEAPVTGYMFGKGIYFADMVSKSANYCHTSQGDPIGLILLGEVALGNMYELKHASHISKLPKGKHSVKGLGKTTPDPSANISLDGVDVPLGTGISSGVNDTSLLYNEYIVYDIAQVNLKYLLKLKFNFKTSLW", "experiment": "PARP inhibition assay (TREVIGEN kit, NAD fluorescence)", "format": "biochemical", "settings": "final PARP concentration 40 nM; inhibition curves FIG. 2A-2D", "protocol": "The PARP inhibition assay was performed using a commercially available PARP inhibition assay kit (TREVIGEN, 4690-096-K).\nA 1× buffer was prepared by diluting 10× buffer with dH2O.\nThe nicotinamide adenine dinucleotide (NAD) standards were prepared by diluting the NAD stock solution with the 1× buffer as provided in Table 2 below.\nPARP1 inhibitors were prepared in 1× buffer at 50× final concentration. 1 μl of PARP inhibitors were added to the 96 well plate.\nPARPminus (×20) and PARPplus (×40) solutions were prepared as provided below in Table 3.\nThe cycling mix(60×) was prepared as provided below in Table 4.\nIn the black 96 well plate provided with the kit, 25 μl of 1× buffer was added to wells A5 and A6. To wells B5 to G6, 25 μl of 2×NAD standards were added. To wells H1, H2, A7 to G12, 25 μl NAD2 μM were added. To wells A5 to H6, 1 μl DMSO were added.\nThe following stock solutions of olaparib and C3 were separately prepared: 500 nM, 2.5 μM, 5 μM, 25 μM, 50 μM, 0.5 mM, and 1 mM. […]\nThe 96 well plate was read with a fluorescent plate reader (544 nm excitation/590 nm emission filters). […]\nThe standards indicate that higher concentrations of NAD correspond to higher fluorescence. Because PARP1 consumes NAD, PARP1 inhibition was determined by fluorescence intensity.\nInhibition curves were prepared based on the fluorescence data. […]"}, "MCF7 cells [1]": {"system": "MCF7 cells", "experiment": "MCF7 cell proliferation assay", "format": "cell-based, human", "settings": "days 1-4; FIG. 6, 7", "protocol": "A cell proliferation assay was performed with MCF7 cells, which is a human breast cancer adenocarcima cell line which expresses PARP1, to compare the inhibitor effect of C2 (Abemaciclib), C2 in combination with letrozole (1 μM), C3, and C3 in combination with letrozole (1 μM). Cell proliferation results at increasing concentrations of C2 and C3 were measured at day 1 (FIG. 6A), day 2 (FIG. 6B), day 3 (FIG. 6C), and day 4 (FIG. 6D)."}, "MB231 cells": {"system": "MB231 cells", "experiment": "MB231 cell proliferation assay", "format": "cell-based, human", "settings": "days 1-4; FIG. 8, 9", "protocol": "A cell proliferation assay was performed with MB231 cells, which is a human breast cancer adenocarcinoma cell line expressing a mutant CDKN2A, treated with C3 or olaparib. Cell proliferation results at increasing concentrations of C3 and olaparib were measured at day 1 (FIG. 8A), day 2 (FIG. 8B), day 3 (FIG. 8C), and day 4 (FIG. 8D)."}, "HCC1395 cells": {"system": "HCC1395 cells", "experiment": "BRAC1 mutant triple negative breast cancer cell growth inhibition assay (Cell Titer Glo), HCC1395", "format": "cell-based", "protocol": "(§1) HCC1937 cells and HCC1395 cells are both […], triple negative (ER, PR, HER2) breast cancer cell lines. The cells were maintained in RPMI1640 medium (Gibco A10491-01) supplemented with 10% FBS, and 1× Penicillin Streptomycin. The HCC1937 cells (ATCC® CRL-2336™) and HCC1395 cells (ATCC® CRL-2324™), respectively, were plated in 96 dark well plates at 0.4×10^4 cells/well.\n(§2) Cell medium was replaced each day for 4 days.\n(§3) To determine cell viability, the relative cell number was determined by the Cell Titer Glo reagent (Promega) according to the protocol. At each day of the assay, the 96 well plate and reagents were equilibrated at RT for 30 min. 100 μl of Cell Titer Glo reagent was added to each well. The contents of each well were mixed using a pipetter to induce cell lysis. The plate was allowed to incubate at RT for 30 min to stabilize the luminescent signal, and the luminescence was determined by a luminometer (Perkin Elmer EnSpire)."}, "HCC1937 cells": {"system": "HCC1937 cells", "experiment": "BRAC1 mutant triple negative breast cancer cell growth inhibition assay (Cell Titer Glo), HCC1937", "format": "cell-based", "protocol": "as §1, §2, §3"}, "[2]": {"system": "more than 480 kinase assays (403 non-mutant kinases)", "experiment": "Kinase selectivity, DiscoverX KINOMEscan competition binding", "protocol": "A kinase selectivity assay was performed with C3 using DiscoverX KINOMEscan™ (www.discoverx.com/, which is herein incorporated by reference in its entirety for all purposes). The KINOMEscan platform employs active site-directed competition binding assay to quantitatively measure interactions between test compounds (e.g., C3) and more than 480 kinase assays including clinically relevant mutants, lipid, atypical, and pathogen kinases, plus a growing panel of activation-state specific assays.\nThe data was interpreted using three selectivity score types (e.g., S(35); S(10); and S(1)) in order to provide a broad kinase selectivity picture (e.g., a selectivity score) of C3. The selectivity score was calculated using % Ctrl as a potency threshold (below) and provides a quantitative method of describing compound selectivity to facilitate comparison of different compounds. The three selectivity score types used to interpret the data are summarized below: S=Number of hits/Number of assays S(35)=(number of non-mutant kinases with % Ctrl<35)/(number of non-mutant kinases tested) S(10)=(number of non-mutant kinases with % Ctrl<10)/(number of non-mutant kinases tested) S(1)=(number of non-mutant kinases with % Ctrl<1)/(number of non-mutant kinases tested)"}, "[3]": {"experiment": "Pharmacokinetics in female BALB/c mice", "format": "in vivo", "settings": "plasma; for MRT last: read-out: MRT(0-t)", "protocol": "Pharmacokinetic parameters of the of C3 were measured after a single intraperitoneal injection (IP) of 10 mg/kg, or oral administration (PO) of 50 mg/kg in female BALB/c mice. Pharmacokinetic parameters measured include: elimination half-life (t1/2), time to reach maximum blood plasma concentration (Tmax); maximum blood plasma concentration (Cmax); area under the blood plasma concentration-time curve from time zero to the last detectable plasma concentration (AUC(0-t)); area under the blood plasma concentration-time curve from time zero to infinity (AUC(0-∞)); the mean residence time of the drug in the body from time zero to the last detectable plasma concentration (MRT(0-t)); apparent volume of distribution during terminal phase (Vz); and apparent total body clearance of the drug from plasma (CL)."}, "MCF/E2 xenograft tumor": {"system": "MCF/E2 xenograft tumor", "experiment": "MCF/E2 xenograft tumor mouse model, tumor volume", "format": "in vivo", "settings": "50 mg/kg P.O. QD for 2 weeks; FIG. 14A", "protocol": "(§4) A MCF/E2 xenograft tumor mouse model was used to evaluate the efficacy of C3 in the treatment of breast cancer. 50 mg/kg of C3 was administered, P.O., once daily (QD) for 2 weeks. Data was compared to a vehicle control."}, "[4]": {"experiment": "MCF/E2 xenograft tumor mouse model, body weight", "format": "in vivo", "settings": "50 mg/kg P.O. QD for 2 weeks; FIG. 14B", "protocol": "as §4"}, "MCF7 cells [5]": {"system": "MCF7 cells", "experiment": "MCF7 breast cancer cell viability assay", "format": "cell-based, human", "settings": "FIG. 15A", "protocol": "(§5) MCF7 is a breast cancer cell line isolated from a person. MDA-MB-231 is a cell line is an epithelial, human breast cancer cell line that was established from a pleural effusion of a person with a metastatic mammary adenocarcinomal. Cell assays were performed using increasing concentrations of C3 and cell viability was measured. Olaparib and palbocicilib were also used in the cell assays to compare the efficacy of C3 in decreasing cell viability of these breast cancer lines."}, "MDA-MB-231 cells": {"system": "MDA-MB-231 cells", "experiment": "MDA-MB-231 breast cancer cell viability assay", "format": "cell-based, human", "settings": "increasing concentrations; FIG. 15B", "protocol": "as §5"}, "[6]": {"settings": "% Ctrl<1, 403 non-mutant kinases, screening concentration 1000 nM"}, "[7]": {"settings": "% Ctrl<10, 403 non-mutant kinases, screening concentration 1000 nM"}, "[8]": {"settings": "% Ctrl<35, 403 non-mutant kinases, screening concentration 1000 nM"}},
  "note": "Where two headings read alike, the source gives them in different places.",
  "data": [
    {"smiles": "Cc1nc2c(F)cc(-c3nc(Nc4ccc(N5CCN(C(=O)c6cc(Cc7n[nH]c(=O)c8ccccc78)ccc6F)CC5)cn4)ncc3F)cc2n1C(C)C", "note": "[Compound C3]", "values": [
      {"measurement": "PARP1 inhibition (comparison in words)", "setting": "PARP1", "value": "superior to C2 (Abemaciclib) and similar to olaparib"},
      {"measurement": "inhibition of MCF7 cell proliferation", "setting": "MCF7 cells [1]", "value": "inhibitor of cell proliferation"},
      {"measurement": "inhibition of MB231 cell proliferation", "setting": "MB231 cells", "value": "stronger inhibitor of cell proliferation of MB231 human breast cancer adenocarcinoma cells than olaparib"},
      {"measurement": "viable HCC1395 cells", "setting": "HCC1395 cells; 10 μM, day 4, FIG. 10D", "value": "almost no HCC1395 cells were viable"},
      {"measurement": "viable HCC1937 cells", "setting": "HCC1937 cells; 10 μM, day 4, FIG. 11D", "value": "almost no HCC1937 cells were viable"},
      {"measurement": "Number of Hits, S(1)", "setting": "[2]; [6]", "value": 11},
      {"measurement": "Selectivity Score S(1)", "setting": "[2]; [6]", "value": 0.027},
      {"measurement": "Number of Hits, S(10)", "setting": "[2]; [7]", "value": 50},
      {"measurement": "Selectivity Score S(10)", "setting": "[2]; [7]", "value": 0.124},
      {"measurement": "Number of Hits, S(35)", "setting": "[2]; [8]", "value": 86},
      {"measurement": "Selectivity Score S(35)", "setting": "[2]; [8]", "value": 0.213},
      {"measurement": "kinase selectivity (in words)", "setting": "[2]; KINOMEscan, 1000 nM", "value": "relatively selective kinase, with similar kinase selectivity as Abemaciclib"},
      {"measurement": "AUC(0-t)", "setting": "[3]; mouse, PO 50 mg/kg", "value": 1700, "unit": "ng·h/mL"},
      {"measurement": "Cmax", "setting": "[3]; mouse, PO 50 mg/kg", "value": 292, "unit": "ng/mL"},
      {"measurement": "Tmax", "setting": "[3]; mouse, PO 50 mg/kg", "value": 4, "unit": "h"},
      {"measurement": "MRT last", "setting": "[3]; mouse, PO 50 mg/kg", "value": 3.62, "unit": "h"},
      {"measurement": "AUC(0-inf)", "setting": "[3]; mouse, single IP 10 mg/kg", "value": 2670, "unit": "ng·h/mL"},
      {"measurement": "AUC(0-t)", "setting": "[3]; mouse, single IP 10 mg/kg", "value": 2520, "unit": "ng·h/mL"},
      {"measurement": "Cmax", "setting": "[3]; mouse, single IP 10 mg/kg", "value": 284, "unit": "ng/mL"},
      {"measurement": "Tmax", "setting": "[3]; mouse, single IP 10 mg/kg", "value": 0.25, "unit": "h"},
      {"measurement": "half-life", "setting": "[3]; mouse, single IP 10 mg/kg", "value": 5.7, "unit": "h"},
      {"measurement": "MRT last", "setting": "[3]; mouse, single IP 10 mg/kg", "value": 6.3, "unit": "h"},
      {"measurement": "CL", "setting": "[3]; single IP 10 mg/kg", "value": 62.3432, "unit": "mL/min/kg"},
      {"measurement": "Vz", "setting": "[3]; single IP 10 mg/kg", "value": 30.75832, "unit": "L/kg"},
      {"measurement": "change in tumor volume versus vehicle control", "setting": "MCF/E2 xenograft tumor", "value": "able to limit tumor growth compared to the vehicle control"},
      {"measurement": "change in body weight versus vehicle control", "setting": "[4]", "value": "does not causes changes in body weight"},
      {"measurement": "reduction of MCF7 cell viability (comparison in words)", "setting": "MCF7 cells [5]; increasing concentrations", "value": "reduced cell viability of MCF7 cells at lower concentrations compared to both olaparib and palbocicilib"},
      {"measurement": "reduction of MDA-MB-231 cell viability (comparison in words)", "setting": "MDA-MB-231 cells", "value": "more effective in reducing cell viability of MDA-NIB-231 cell than olaparib and palbocicilib"}
    ]},
    {"smiles": "O=C(c1cc(Cc2n[nH]c(=O)c3ccccc23)ccc1F)N1CCN(C(=O)C2CC2)CC1", "note": "[olaparib, reference compound]", "values": [
      {"measurement": "viability at 10 µM", "setting": "HCC1395 cells; Homo sapiens, HCC1395, 96 h, day 4, FIG. 10D, read-out: viable HCC1395 cells", "value": "~60", "unit": "%"},
      {"measurement": "viability at 10 µM", "setting": "HCC1937 cells; Homo sapiens, HCC1937, 96 h, day 4, FIG. 11D, read-out: viable HCC1937 cells", "value": "> 80", "unit": "%"},
      {"measurement": "concentration at which MCF7 cell viability was reduced to 0", "setting": "MCF7 cells [5]", "value": "did not reduce cell viability to 0% at the concentrations tested"}
    ]}
  ]
}
